Source: ChEMBL document CHEMBL1201862, “PubChem BioAssay data set” (2004)
Calls of active or inactive are those of the source.

What was measured:
[1] = target: T1, G-protein coupled receptor 55 (Homo sapiens, UniProt Q9Y2T6); experiment: inhibition of LPI-stimulated GPR55 beta-arrestin translocation – imaging, U2OS, beta-arrestin-GFP, LPI agonist, primary screen (AID 2013); format: functional;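 further: antagonist potency measured as reduced agonist-driven arrestin aggregation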
[2] = target: Beta-lactamase (Pseudomonas aeruginosa, UniProt Q79MP6);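 further: biochemical dose-response test of metallo-beta-lactamase enzyme inhibition, read out by epi-absorbance; purified recombinant IMP-1 metallo-beta-lactamase with nitrocefin as substrate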
[3] = target: Beta-lactamase (Salmonella choleraesuis (strain SC-B67), UniProt Q5J463)
Beta-lactamase (Salmonella choleraesuis (strain SC-B67), UniProt Q5J463), sequence (Q5J463 whole entry): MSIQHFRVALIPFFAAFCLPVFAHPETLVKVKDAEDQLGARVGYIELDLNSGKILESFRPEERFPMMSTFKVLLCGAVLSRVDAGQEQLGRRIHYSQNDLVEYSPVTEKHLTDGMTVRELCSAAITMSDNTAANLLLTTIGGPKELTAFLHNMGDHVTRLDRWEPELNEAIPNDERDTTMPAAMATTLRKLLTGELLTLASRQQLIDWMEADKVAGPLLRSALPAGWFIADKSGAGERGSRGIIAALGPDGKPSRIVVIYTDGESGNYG

[4] = target: T2, Insulin-degrading enzyme (Homo sapiens, UniProt P14735); experiment: recombinant IDE activation, cell-free – biochemical, fluorescence polarization, counter-screen for IDE activator project, dose response (AID 588681)
T2 sequence (P14735 whole entry): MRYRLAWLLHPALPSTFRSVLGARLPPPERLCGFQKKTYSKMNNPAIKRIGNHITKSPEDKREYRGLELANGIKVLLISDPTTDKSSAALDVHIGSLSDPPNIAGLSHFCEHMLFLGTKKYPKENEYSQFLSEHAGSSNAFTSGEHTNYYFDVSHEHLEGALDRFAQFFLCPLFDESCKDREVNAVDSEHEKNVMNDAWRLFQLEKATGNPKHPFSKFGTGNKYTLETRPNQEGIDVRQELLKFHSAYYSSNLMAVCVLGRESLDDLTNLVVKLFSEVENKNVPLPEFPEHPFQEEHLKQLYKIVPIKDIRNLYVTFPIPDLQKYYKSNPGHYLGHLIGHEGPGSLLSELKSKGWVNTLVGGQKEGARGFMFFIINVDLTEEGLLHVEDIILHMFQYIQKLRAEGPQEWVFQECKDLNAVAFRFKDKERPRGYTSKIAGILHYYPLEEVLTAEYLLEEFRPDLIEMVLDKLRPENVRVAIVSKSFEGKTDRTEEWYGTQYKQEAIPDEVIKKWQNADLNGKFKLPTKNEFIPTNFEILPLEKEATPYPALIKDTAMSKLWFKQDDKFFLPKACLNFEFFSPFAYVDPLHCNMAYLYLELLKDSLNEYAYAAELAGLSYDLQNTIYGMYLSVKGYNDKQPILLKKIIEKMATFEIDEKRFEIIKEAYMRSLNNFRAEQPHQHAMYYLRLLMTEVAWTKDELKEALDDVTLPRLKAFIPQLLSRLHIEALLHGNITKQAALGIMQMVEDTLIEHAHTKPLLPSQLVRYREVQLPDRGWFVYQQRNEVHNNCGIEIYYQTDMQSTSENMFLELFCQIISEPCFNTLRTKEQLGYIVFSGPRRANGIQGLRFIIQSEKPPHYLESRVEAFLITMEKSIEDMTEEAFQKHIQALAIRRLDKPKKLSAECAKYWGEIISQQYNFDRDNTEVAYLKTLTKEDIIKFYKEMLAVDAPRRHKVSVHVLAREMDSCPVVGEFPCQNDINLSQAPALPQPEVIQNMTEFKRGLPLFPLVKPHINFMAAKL

[5] = target: T2, Insulin-degrading enzyme; experiment: cellular IDE activation of Abeta substrate cleavage – fluorescence polarization, HEK cells, dose response (AID 588439); format: functional, cell-based
[6] = tested on: HEK293; experiment: membrane integrity loss in HEK cells – cell-based, fluorescence, cytotoxicity control for IDE activator project, dose response (AID 588440); format: functional; details: Homo sapiens;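 further: cytotoxicity by LDH release measuring loss of membrane integrity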
[7] = tested on: HEK293; experiment: optical interference in Abeta FP readout, dose response, artefact control for IDE activator project, biochemical, fluorescence polarization (AID 588442); format: functional, cell-based; details: Homo sapiens
[8] = target: T1, G-protein coupled receptor 55; experiment: selective activators of receptor GPR55 – imaging, U2OS cells, beta-arrestin-GFP redistribution, primary screen (AID 1961); format: functional
[9] = target: T3, Botulinum neurotoxin type A (Clostridium botulinum (strain Hall / ATCC 3502 / NCTC 13319 / Type A), UniProt P0DPI1); experiment: High-throughput multiplex microsphere dose response for inhibitors of toxin protease, specifically Botulinum neurotoxin light chain A protease, compounds from Cherry Pick 02.; format: functional; details: read-out: EC50_MICROM
T3 sequence (P0DPI1 2-448 limits assumed): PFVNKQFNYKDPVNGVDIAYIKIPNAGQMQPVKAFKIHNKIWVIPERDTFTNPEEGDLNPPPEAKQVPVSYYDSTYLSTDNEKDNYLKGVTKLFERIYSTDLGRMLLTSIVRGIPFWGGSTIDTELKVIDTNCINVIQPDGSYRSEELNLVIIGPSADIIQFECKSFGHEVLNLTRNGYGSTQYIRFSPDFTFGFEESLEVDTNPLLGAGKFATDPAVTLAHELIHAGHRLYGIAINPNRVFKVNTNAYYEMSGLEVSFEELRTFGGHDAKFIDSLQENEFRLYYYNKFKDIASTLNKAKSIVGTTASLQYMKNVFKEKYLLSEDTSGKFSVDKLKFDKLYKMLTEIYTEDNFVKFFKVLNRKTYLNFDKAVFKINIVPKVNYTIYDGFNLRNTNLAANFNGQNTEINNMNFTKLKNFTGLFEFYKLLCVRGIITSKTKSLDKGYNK

[10] = target: T4, Botulinum neurotoxin type F (Clostridium botulinum, UniProt P30996); experiment: High-throughput multiplex microsphere dose response for inhibitors of toxin protease, specifically Botulinum neurotoxin light chain F protease, compounds from Cherry Pick 02.; format: functional; details: read-out: EC50_MICROM
T4 sequence (P30996 1-436 limits assumed): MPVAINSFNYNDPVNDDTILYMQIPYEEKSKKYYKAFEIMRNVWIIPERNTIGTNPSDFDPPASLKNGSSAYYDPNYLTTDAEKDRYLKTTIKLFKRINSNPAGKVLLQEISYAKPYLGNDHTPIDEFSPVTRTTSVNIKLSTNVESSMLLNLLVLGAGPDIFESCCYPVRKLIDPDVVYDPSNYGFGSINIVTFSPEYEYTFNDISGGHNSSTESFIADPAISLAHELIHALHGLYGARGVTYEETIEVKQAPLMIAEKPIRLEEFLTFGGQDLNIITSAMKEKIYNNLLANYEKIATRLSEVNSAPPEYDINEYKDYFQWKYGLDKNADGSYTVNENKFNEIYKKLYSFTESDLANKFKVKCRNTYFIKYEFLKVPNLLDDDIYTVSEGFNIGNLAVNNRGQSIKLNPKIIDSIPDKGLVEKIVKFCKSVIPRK

[11] = target: T3, Botulinum neurotoxin type A; experiment: High-throughput multiplex microsphere dose response for inhibitors of toxin protease, specifically Botulinum neurotoxin light chain A protease, compounds from Cherry Pick 01.; format: functional; details: read-out: EC50_MICROM
[12] = target: T4, Botulinum neurotoxin type F; experiment: High-throughput multiplex microsphere dose response for inhibitors of toxin protease, specifically Botulinum neurotoxin light chain F protease, compounds from Cherry Pick 01.; format: functional; details: read-out: EC50_MICROM
[13] = target: T3, Botulinum neurotoxin type A; experiment: High-throughput multiplex microsphere dose response for inhibitors of toxin protease, specifically Botulinum neurotoxin light chain A protease, compounds from Powder Set 01.; format: functional, Clostridium botulinum A str. ATCC 3502; details: read-out: EC50_MICROM
[14] = target: T3, Botulinum neurotoxin type A; experiment: Confirmatory FRET assay using full length substrates for Botulinum neurotoxin light chain A protease, with Powder Set01.; format: functional
[15] = target: Vascular endothelial growth factor receptor 2 (Homo sapiens, UniProt P35968); format: functional
Vascular endothelial growth factor receptor 2, sequence (P35968 whole entry): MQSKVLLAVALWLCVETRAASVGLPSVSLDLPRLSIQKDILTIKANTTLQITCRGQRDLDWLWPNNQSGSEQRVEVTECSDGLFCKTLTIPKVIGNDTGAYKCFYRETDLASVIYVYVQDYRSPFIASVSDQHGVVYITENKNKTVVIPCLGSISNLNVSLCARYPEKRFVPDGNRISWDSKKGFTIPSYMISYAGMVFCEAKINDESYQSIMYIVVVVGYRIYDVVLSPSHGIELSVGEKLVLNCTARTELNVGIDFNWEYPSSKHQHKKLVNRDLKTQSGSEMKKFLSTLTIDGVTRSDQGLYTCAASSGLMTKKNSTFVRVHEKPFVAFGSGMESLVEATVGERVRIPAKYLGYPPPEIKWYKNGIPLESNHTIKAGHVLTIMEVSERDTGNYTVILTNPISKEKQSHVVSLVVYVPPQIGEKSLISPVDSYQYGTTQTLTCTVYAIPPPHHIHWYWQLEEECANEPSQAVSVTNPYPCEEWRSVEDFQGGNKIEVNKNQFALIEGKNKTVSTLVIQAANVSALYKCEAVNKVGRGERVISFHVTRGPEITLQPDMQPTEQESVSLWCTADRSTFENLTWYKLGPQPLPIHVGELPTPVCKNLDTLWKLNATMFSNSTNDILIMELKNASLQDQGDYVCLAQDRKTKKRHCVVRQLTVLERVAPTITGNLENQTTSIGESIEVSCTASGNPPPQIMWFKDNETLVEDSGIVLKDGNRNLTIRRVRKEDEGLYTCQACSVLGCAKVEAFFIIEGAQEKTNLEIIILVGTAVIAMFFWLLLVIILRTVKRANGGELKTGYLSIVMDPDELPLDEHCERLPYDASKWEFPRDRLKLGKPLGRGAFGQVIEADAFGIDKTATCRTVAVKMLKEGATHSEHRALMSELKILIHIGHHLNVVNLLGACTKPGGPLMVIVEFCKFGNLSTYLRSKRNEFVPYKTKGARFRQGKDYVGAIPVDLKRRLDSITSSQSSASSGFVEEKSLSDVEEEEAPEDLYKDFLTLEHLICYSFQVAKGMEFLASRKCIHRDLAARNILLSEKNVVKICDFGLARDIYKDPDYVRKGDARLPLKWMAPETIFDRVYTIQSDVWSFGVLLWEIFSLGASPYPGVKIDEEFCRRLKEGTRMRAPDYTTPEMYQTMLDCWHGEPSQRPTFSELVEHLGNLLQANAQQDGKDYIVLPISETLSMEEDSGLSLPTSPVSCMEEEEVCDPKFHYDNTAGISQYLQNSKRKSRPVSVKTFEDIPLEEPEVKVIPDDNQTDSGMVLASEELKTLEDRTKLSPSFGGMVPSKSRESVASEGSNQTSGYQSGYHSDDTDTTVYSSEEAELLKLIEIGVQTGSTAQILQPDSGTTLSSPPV

[16] = target: Dual specificity tyrosine-phosphorylation-regulated kinase 1B (Homo sapiens, UniProt Q9Y463); experiment: Navigating the Kinome. Panel member name: DYRK1B; format: functional
Dual specificity tyrosine-phosphorylation-regulated kinase 1B, sequence (Q9Y463 whole entry): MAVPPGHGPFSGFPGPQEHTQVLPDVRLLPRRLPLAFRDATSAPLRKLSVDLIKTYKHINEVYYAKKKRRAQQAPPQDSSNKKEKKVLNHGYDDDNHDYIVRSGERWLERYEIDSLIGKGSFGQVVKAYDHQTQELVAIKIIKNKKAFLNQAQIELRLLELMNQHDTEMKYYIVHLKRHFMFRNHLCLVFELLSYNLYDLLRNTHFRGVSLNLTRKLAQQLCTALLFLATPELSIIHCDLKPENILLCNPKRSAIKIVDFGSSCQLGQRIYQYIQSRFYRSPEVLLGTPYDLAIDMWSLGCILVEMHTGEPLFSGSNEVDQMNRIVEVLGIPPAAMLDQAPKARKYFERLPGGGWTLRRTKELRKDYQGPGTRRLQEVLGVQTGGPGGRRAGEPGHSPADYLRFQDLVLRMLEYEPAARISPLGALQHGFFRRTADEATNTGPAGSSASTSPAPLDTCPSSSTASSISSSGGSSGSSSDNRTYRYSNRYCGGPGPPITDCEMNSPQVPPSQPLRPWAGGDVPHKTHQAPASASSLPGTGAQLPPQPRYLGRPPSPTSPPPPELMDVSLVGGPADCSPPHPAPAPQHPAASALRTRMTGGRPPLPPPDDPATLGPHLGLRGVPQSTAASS

[17] = target: Platelet-derived growth factor receptor alpha (Homo sapiens, UniProt P16234); experiment: Navigating the Kinome. Panel member name: PDGFRA; format: functional
Platelet-derived growth factor receptor alpha, sequence (P16234 whole entry): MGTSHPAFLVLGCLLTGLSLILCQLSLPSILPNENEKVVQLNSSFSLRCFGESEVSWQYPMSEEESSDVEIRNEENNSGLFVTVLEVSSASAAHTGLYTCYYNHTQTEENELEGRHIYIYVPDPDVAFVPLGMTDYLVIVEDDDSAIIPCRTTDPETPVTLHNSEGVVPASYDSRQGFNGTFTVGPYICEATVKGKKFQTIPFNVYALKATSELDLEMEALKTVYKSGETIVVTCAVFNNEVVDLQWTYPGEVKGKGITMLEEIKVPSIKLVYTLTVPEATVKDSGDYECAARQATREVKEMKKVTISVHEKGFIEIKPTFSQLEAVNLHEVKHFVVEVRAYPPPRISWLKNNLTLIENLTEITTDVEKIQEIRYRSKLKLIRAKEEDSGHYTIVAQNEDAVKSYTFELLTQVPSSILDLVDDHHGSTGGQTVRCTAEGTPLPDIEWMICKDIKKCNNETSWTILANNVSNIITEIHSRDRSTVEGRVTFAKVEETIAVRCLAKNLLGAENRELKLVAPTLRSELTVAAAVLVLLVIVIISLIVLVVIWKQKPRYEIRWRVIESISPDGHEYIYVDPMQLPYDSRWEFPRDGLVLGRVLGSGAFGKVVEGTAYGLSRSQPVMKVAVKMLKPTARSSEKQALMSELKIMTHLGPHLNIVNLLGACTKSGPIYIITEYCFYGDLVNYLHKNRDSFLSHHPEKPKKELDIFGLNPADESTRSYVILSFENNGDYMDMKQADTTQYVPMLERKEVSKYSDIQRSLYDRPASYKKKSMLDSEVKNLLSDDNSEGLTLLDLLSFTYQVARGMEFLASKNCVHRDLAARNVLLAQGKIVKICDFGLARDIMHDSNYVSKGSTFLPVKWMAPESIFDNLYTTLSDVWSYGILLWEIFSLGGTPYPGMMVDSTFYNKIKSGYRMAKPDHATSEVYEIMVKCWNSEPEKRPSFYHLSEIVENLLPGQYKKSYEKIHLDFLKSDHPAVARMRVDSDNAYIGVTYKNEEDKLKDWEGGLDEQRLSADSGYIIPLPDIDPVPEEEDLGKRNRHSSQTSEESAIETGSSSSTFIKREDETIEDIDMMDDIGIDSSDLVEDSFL

[18] = target: Rho-associated protein kinase 1 (Homo sapiens, UniProt Q13464); format: functional;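 further: measured within a broad kinome-wide panel profiling many kinases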
[19] = target: Cyclin-dependent kinase 8 (Homo sapiens, UniProt P49336); experiment: Navigating the Kinome. Panel member name: CDK8; format: functional
[20] = target: Cyclin-dependent kinase 9 (Homo sapiens, UniProt P50750); format: functional;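 further: value from the CDK9 entry of a kinome-spanning kinase panel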
[21] = target: cAMP-dependent protein kinase catalytic subunit alpha (Homo sapiens, UniProt P17612); format: functional
[22] = target: Dual specificity protein kinase CLK4 (Homo sapiens, UniProt Q9HAZ1); format: functional
Dual specificity protein kinase CLK4, sequence (Q9HAZ1 whole entry): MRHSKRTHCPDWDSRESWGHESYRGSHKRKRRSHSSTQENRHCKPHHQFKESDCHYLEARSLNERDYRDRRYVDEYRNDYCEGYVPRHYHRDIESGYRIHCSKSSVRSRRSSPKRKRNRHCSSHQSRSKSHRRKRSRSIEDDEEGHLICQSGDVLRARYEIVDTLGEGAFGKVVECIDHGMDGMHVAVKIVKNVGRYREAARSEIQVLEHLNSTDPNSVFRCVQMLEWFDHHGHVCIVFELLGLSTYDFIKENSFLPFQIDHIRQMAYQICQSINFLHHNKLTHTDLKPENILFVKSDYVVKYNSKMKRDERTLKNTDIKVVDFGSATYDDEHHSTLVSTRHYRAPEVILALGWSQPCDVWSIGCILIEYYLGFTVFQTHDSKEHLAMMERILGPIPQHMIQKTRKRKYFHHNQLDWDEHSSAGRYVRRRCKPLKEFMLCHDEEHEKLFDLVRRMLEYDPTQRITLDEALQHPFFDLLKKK

[23] = target: Homeodomain-interacting protein kinase 2 (Homo sapiens, UniProt Q9H2X6); format: functional;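 further: measured within a kinome-wide kinase profiling panel, HIPK2 being one panel member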
[24] = target: Interleukin-1 receptor-associated kinase 4 (Homo sapiens, UniProt Q9NWZ3); format: functional
[25] = target: Glycogen synthase kinase-3 beta (Homo sapiens, UniProt P49841); format: functional;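 further: value comes from a broad kinome profiling panel, with GSK3B as the panel member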
[26] = target: Mitogen-activated protein kinase kinase kinase kinase 4 (Homo sapiens, UniProt O95819); format: functional
[27] = THP-1 cell cytotoxicity, cytotoxicity control, set 4 (AID 504911); format: functional; details: Mycobacterium tuberculosis
[28] = Vero cell cytotoxicity, dose response, cytotoxicity control for M. tuberculosis growth inhibitor project, Vero cells, purified and synthesized compounds, set 4 (AID 504854); format: functional; details: Mycobacterium tuberculosis
[29] = THP-1 cell cytotoxicity, cytotoxicity control, set 5 (AID 588443); format: functional
[30] = Vero cell viability loss – purified and synthesized compounds, set 6, cytotoxicity control for M. tuberculosis inhibitor project, dose response (AID 588445); format: functional; details: Mycobacterium tuberculosis
[31] = target: Protein kinase C theta type (Homo sapiens, UniProt Q04759); experiment: Navigating the Kinome. Panel member name: PRKCQ; format: functional
[32] = target: Dual specificity mitogen-activated protein kinase kinase 1 (Homo sapiens, UniProt Q02750); experiment: Navigating the Kinome. Panel member name: MAP2K1; format: functional
[33] = target: Proto-oncogene tyrosine-protein kinase receptor Ret (Homo sapiens, UniProt P07949); format: functional;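 further: measured within a kinome-wide profiling panel, RET as the panel member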
[34] = target: Tyrosine-protein kinase receptor TYRO3 (Homo sapiens, UniProt Q06418); format: functional;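 further: TYRO3 value obtained as one member of a kinome-wide profiling panel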
[35] = target: Aurora kinase A (Homo sapiens, UniProt O14965); format: functional;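 further: value from the Navigating the Kinome kinase panel profiling, panel entry STK6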
[36] = target: Fibroblast growth factor receptor 1 (Homo sapiens, UniProt P11362); format: functional
[37] = target: Casein kinase I isoform alpha (Homo sapiens, UniProt P48729); format: functional
[38] = target: Hepatocyte growth factor receptor (Homo sapiens, UniProt P08581); format: functional;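 further: kinase panel profiling across the kinome, with MET as the panel member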
[39] = target: Activated CDC42 kinase 1 (Homo sapiens, UniProt Q07912); experiment: Navigating the Kinome. Panel member name: ACK1; format: functional
[40] = target: Platelet-derived growth factor receptor beta (Homo sapiens, UniProt P09619); format: functional;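 further: value comes from a kinome panel, with PDGFRB tested as one panel member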
[41] = target: Serine/threonine-protein kinase Chk1 (Homo sapiens, UniProt O14757); format: functional;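 further: measured as one member of a kinome-wide kinase profiling panel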
[42] = target: Tyrosine-protein kinase ABL1 (Homo sapiens, UniProt P00519); format: functional
[43] = target: G protein-coupled receptor kinase 5 (Homo sapiens, UniProt P34947); experiment: Navigating the Kinome. Panel member name: GPRK5; format: functional
[44] = target: Cyclin-dependent kinase 5 (Homo sapiens, UniProt Q00535); format: functional;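 further: CDK5 measured as one member of a kinase profiling panel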
[45] = target: Focal adhesion kinase 1 (Homo sapiens, UniProt Q05397); format: functional;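 further: measured as one member of a kinome panel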
[46] = target: Aurora kinase B (Homo sapiens, UniProt Q96GD4); format: functional
[47] = target: Serine/threonine-protein kinase Nek2 (Homo sapiens, UniProt P51955); format: functional
[48] = target: Vascular endothelial growth factor receptor 1 (Homo sapiens, UniProt P17948); format: functional;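 further: measured within a kinome-wide profiling panel, FLT1 as the panel member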
[49] = target: Macrophage colony-stimulating factor 1 receptor (Homo sapiens, UniProt P07333); format: functional;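 further: value comes from the Navigating the Kinome screening panel, CSF1R member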
[50] = target: Dual specificity tyrosine-phosphorylation-regulated kinase 1A (Homo sapiens, UniProt Q13627); format: functional;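 further: measured against DYRK1A as one member of a broad kinome profiling panel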
[51] = target: Inhibitor of nuclear factor kappa-B kinase subunit epsilon (Homo sapiens, UniProt Q14164); experiment: Navigating the Kinome. Panel member name: IKBKE; format: functional
[52] = target: Calcium/calmodulin-dependent protein kinase type II subunit alpha (Homo sapiens, UniProt Q9UQM7); experiment: Navigating the Kinome. Panel member name: CAMK2A; format: functional
[53] = target: Leukocyte tyrosine kinase receptor (Homo sapiens, UniProt P29376); experiment: Navigating the Kinome. Panel member name: LTK; format: functional
[54] = target: DNA dC->dU-editing enzyme APOBEC-3G (Homo sapiens, UniProt Q9HC16); experiment: inhibition of APOBEC3G ssDNA deamination – biochemical, fluorescence, single-stranded DNA substrate, SAR follow-up (AID 602136); format: functional; details: read-out: IC50_Mean
[55] = target: DNA dC->dU-editing enzyme APOBEC-3A (Homo sapiens, UniProt P31941); experiment: SAR analysis of small molecule inhibitors of APOBEC3A DNA Deaminase via a fluorescence-based single-stranded DNA deaminase assay.; format: functional; details: read-out: IC50_Mean

T1 sequence (Q9Y2T6 whole entry): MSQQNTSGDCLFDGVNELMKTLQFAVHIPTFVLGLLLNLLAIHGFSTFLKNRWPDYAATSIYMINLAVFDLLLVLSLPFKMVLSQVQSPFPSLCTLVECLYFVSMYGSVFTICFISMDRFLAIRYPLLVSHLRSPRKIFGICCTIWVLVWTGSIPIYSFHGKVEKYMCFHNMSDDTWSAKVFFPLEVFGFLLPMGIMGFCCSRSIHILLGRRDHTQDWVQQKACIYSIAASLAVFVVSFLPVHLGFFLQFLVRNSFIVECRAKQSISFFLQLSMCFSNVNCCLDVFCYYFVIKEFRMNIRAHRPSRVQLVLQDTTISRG

CCN(CC)C1=CC2=CC(=C(C#N)C#N)CCC2CC1 (stereo not given)
IC50 [1]: 3 µM (active) | IC50 [2]: 3.32 µM (active) | IC50 [3]: 1.34 µM (active) | EC50 [4]: > 54.7 µM (inactive) | EC50 [5]: > 54.7 µM (inactive) | IC50 [6]: > 89.2 µM (inactive) | EC50 [7]: > 54.7 µM (inactive)

COc1ccccc1[N+]1=N[C-](c2ccc([N+](=O)[O-])cc2)CC1c1ccccc1 (stereo not given)
IC50 [2]: > 59.6 µM (inactive) | IC50 [3]: > 59.6 µM (inactive) | EC50 [8]: < 0.5 µM (active) | EC50 [9]: 1 µM (active) | EC50 [10]: 0.4 µM (active) | EC50 [11]: 1.7 µM (active) | EC50 [12]: 1.8 µM (active) | EC50 [13]: 1.4 µM (active) | EC50 [14]: 0.2 µM (active)

c1ccc(C2CCc3[nH]ncc32)cc1 (stereo not given)
Ki [15]: 50.1 µM (active) | Ki [16]: 39.8 µM (active) | Ki [17]: 79.4 µM (active) | Ki [18]: 20 µM (active) | Ki [19]: 39.8 µM (active) | Ki [20]: 31.6 µM (active) | Ki [21]: 39.8 µM (active) | Ki [22]: 12.6 µM (active)

CN(C)c1ccc(-c2c(-c3ccc4[nH]nc(N)c4c3)nnn2Cc2ccccc2)cc1
Ki [23]: > 3.16 µM (inactive) | Ki [24]: > 10 µM (inactive) | Ki [25]: 0.0251 µM (active) | Ki [21]: 0.631 µM (active) | Ki [26]: 0.0794 µM (active)

O=C(CSc1nc2c(c(=O)[nH]1)CCC2)NC1CCCCC1
CC50 [27]: > 100 µM (active) | CC50 [28]: > 100 µM (active)

CCC(C)NC(=O)CSc1nc2ccccc2c(=O)[nH]1 (stereo not given)
CC50 [29]: > 100 µM (active) | CC50 [30]: > 100 µM (active)

CC(C)c1cc(=O)[nH]c2[nH][nH]c(=O)c12
Ki [31]: > 100 µM (inactive) | Ki [32]: 100 µM (active) | Ki [33]: 31.6 µM (active) | Ki [34]: 31.6 µM (active) | Ki [35]: 15.8 µM (active) | Ki [36]: 63.1 µM (active) | Ki [37]: 20 µM (active) | Ki [38]: 63.1 µM (active) | Ki [39]: 25.1 µM (active) | Ki [40]: > 79.4 µM (inactive) | Ki [41]: 12.6 µM (active) | Ki [42]: 63.1 µM (active) | Ki [15]: > 100 µM (inactive) | Ki [43]: 20 µM (active) | Ki [44]: 15.8 µM (active) | Ki [16]: 15.8 µM (active) | Ki [45]: 79.4 µM (active) | Ki [17]: 63.1 µM (active) | Ki [46]: 63.1 µM (active) | Ki [47]: 63.1 µM (active) | Ki [19]: 31.6 µM (active) | Ki [48]: 79.4 µM (active) | Ki [21]: > 50.1 µM (inactive) | Ki [22]: 5.01 µM (active) | Ki [26]: 100 µM (active) | Ki [49]: 10 µM (active) | Ki [50]: 15.8 µM (active) | Ki [51]: 63.1 µM (active) | Ki [52]: 63.1 µM (active) | Ki [53]: 15.8 µM (active)

CCn1c(SCC(=O)NCc2ccco2)nnc1-c1ccccc1O
IC50 [54]: > 99 µM (inactive) | IC50 [55]: > 99 µM (inactive)
